Assay [1] deals with T1, prostate specific membrane antigen (PSMA) (Homo sapiens, UniProt Q04609).
T1 construct: gene FOLH1
The experiment in a line: competitive radioligand binding on PSMA-positive LNCaP cells vs […]Ga-PSMA-10. In kind it is cell-based.

For assay [2], the target named is T1, prostate specific membrane antigen (PSMA). Kind of assay: competitive radioligand binding on PSMA-positive LNCaP cells (reference ligand). The assay is classed as cell-based.

T1 sequence (Q04609 whole entry): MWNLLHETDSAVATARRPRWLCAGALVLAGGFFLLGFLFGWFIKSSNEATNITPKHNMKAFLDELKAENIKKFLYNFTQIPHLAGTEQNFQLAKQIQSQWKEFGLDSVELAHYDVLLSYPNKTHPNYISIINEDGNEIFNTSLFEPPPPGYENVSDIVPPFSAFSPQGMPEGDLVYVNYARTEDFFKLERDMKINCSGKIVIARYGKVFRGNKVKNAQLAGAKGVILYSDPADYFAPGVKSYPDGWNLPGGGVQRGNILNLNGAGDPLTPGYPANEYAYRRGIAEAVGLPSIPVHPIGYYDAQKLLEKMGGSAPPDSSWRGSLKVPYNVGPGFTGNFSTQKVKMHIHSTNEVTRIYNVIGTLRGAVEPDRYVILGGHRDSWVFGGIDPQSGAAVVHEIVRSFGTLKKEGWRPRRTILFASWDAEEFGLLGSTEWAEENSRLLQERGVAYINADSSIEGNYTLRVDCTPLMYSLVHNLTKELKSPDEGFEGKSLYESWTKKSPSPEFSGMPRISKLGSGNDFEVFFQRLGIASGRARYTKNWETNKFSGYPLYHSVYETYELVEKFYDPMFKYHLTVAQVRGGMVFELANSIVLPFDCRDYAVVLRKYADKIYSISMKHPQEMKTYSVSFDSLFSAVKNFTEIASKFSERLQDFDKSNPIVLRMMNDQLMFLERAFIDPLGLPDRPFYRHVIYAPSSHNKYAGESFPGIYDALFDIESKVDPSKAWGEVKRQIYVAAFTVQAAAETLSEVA

What is called IC50 is the concentration that inhibits the measured activity by half. With `NC[C@H]1CC[C@H](C(=O)N[C@@H](Cc2ccc3ccccc3c2)C(=O)NCCCC[C@H](NC(=O)N[C@@H](CCC(=O)O)C(=O)O)C(=O)O)CC1` [KuE-617], the IC50 in assay [1] is 21.5 ± 1.9 nM.

In assay [2], `O=C(O)CCc1ccc(O)c(CN(CCN(CC(=O)O)Cc2cc(CCC(=O)NCCCCCC(=O)NCCCC[C@H](NC(=O)N[C@@H](CCC(=O)O)C(=O)O)C(=O)O)ccc2O)CC(=O)O)c1` [PSMA-11] gave an IC50 of 17.4 ± 1.6 nM.

With `O=C(O)CC[C@H](NC(=O)N[C@@H](CCCCNC(=O)[C@H](Cc1ccc2ccccc2c1)NC(=O)[C@H]1CC[C@H](CNC(=O)CN2CCN(CC(=O)O)CCN(CC(=O)O)CCN(CC(=O)O)CC2)CC1)C(=O)O)C(=O)O` [PSMA-617], in assay [2], the IC50 worked out at 15.1 ± 3.8 nM.

For the origin of these results see publication PMC10218109, “Old Drug, New Delivery Strategy: MMAE Repackaged” (International Journal of Molecular Sciences, 2023).
